Experimental data published in patent publication US11331299B2, “Medicinal use of serrulatane diterpenes” (The University of Sydney, priority 2016, dated 2022).
Like-named read-outs stand apart in the source and are kept apart here.

Tested on: 280 human cancer cell lines
Test: OncoPanel cell proliferation assay (10-day)
Format: cell-based
Details: Homo sapiens; for IC50: read-out: Cell Count IC50; for EC50: read-out: Cell Count EC50; for GI50: read-out: Cell Count GI50
[1] = Caov-3, CaOV3, Female GU - Ovary
[2] = ChaGo-K-1, ChaGoK1, Lung - NSCLC
[3] = D341 Med, CNS - Medulloblastoma
[4] = Detroit 562, Detroit 562, Head and Neck
[5] = DoTc2-4510, DoTc2 4510, Lymphoma
[6] = G292, G-292, clone A141B1, Soft Tissue - Osteosarcoma
[7] = HEL 92.1.7, HEL-92-1-7, Leukemia
[8] = HOS, Soft Tissue - Osteosarcoma
[9] = HT-1080, HT-1080, Soft Tissue - Sarcoma
[10] = HUH-6-clone5, HUH-6 Clone 5, Liver
[11] = Hs 821.T, Soft Tissue - Sarcoma
[12] = Hs 888.Sk, Soft Tissue - Osteosarcoma

## CC(C)=CCC[C@H](CO)[C@@H]1CC[C@@H](C)c2c1cc(C)c(O)c2O [Compound 1, 7,8,18-trihydroxyserrulat-14-ene]
Calu-6, Calu6, Lung - NSCLC
  IC50: 9240 nM
[1]
  EC50: 1910 nM
  GI50: 1850 nM
  IC50: 1920 nM
Capan-2, Capan-2, Pancreas
  EC50: 1330 nM
  GI50: 1320 nM
  IC50: 1330 nM
[2]
  EC50: 1530 nM
  GI50: 1530 nM
  IC50: 1540 nM
[3]
  EC50: 9090 nM
  GI50: 9370 nM
  IC50: 9460 nM
DB, Lymphoma
  EC50: 2100 nM
  GI50: 2090 nM
  IC50: 2100 nM
DBTRG-05MG, CNS - Glioma
  EC50: 2650 nM
  GI50: 2640 nM
  IC50: 2660 nM
DK-MG, CNS - Glioma
  EC50: 6160 nM
  GI50: 6120 nM
  IC50: 6410 nM
DLD-1, DLD-1, Colon
  EC50: 2960 nM
  GI50: 2960 nM
  IC50: 2960 nM
DMS-53, DMS53, Lung - SCLC
  EC50: 810 nM
  GI50: 770 nM
  IC50: 810 nM
DMS-114, DMS114, Lung - SCLC
  EC50: 2770 nM
  GI50: 2570 nM
  IC50: 2770 nM
DOHH-2, DOHH-2, Lymphoma
  EC50: 1410 nM
  GI50: 1410 nM
  IC50: 1410 nM
DU-145, DU145, Prostate
  EC50: 2800 nM
  GI50: 2780 nM
  IC50: 2800 nM
Daoy, CNS - Medulloblastoma
  EC50: 1060 nM
  GI50: 1060 nM
  IC50: 1060 nM
Daudi, Lymphoma
  EC50: 1840 nM
  GI50: 1840 nM
  IC50: 1840 nM
[4]
  EC50: 1960 nM
  GI50: 1960 nM
  IC50: 1970 nM
[5]
  EC50: 1030 nM
  GI50: 1010 nM
  IC50: 1030 nM
EB2, Lymphoma
  EC50: 6470 nM
  GI50: 6450 nM
  IC50: 6490 nM
EB-3, Lymphoma
  EC50: 3560 nM
  GI50: 3560 nM
  IC50: 3560 nM
EFM-19, EFM-19, Breast
  EC50: 1610 nM
  GI50: 1540 nM
  IC50: 1610 nM
EM-2, Leukemia
  EC50: 2390 nM
  GI50: 2370 nM
  IC50: 2390 nM
FaDu, Head and Neck
  EC50: 870 nM
  GI50: 870 nM
  IC50: 870 nM
[6]
  EC50: 4550 nM
  GI50: 4410 nM
  IC50: 4570 nM
G-361, G-361, Skin (Melanoma)
  EC50: 1790 nM
  GI50: 1770 nM
  IC50: 1790 nM
G-401, G-401, Kidney
  EC50: 4000 nM
  GI50: 3990 nM
  IC50: 4000 nM
GA-10, GA-10, Lymphoma
  EC50: 1930 nM
  GI50: 1940 nM
  IC50: 1940 nM
H4, CNS - Glioma
  EC50: 2770 nM
  GI50: 2770 nM
  IC50: 2770 nM
HCT-15, HCT-15, Colon
  EC50: 1840 nM
  GI50: 1830 nM
  IC50: 1840 nM
HCT-116, HCT-116, Colon
  EC50: 1750 nM
  GI50: 1750 nM
  IC50: 1750 nM
HEC-1-A, Female GU - Uterus
  EC50: 2570 nM
  GI50: 2560 nM
  IC50: 2570 nM
[7]
  EC50: 13900 nM
  GI50: 13900 nM
  IC50: 13900 nM
HLE, Liver
  EC50: 4620 nM
  GI50: 4590 nM
  IC50: 4630 nM
HLF, Liver
  EC50: 4470 nM
  GI50: 4450 nM
  IC50: 4480 nM
HMCB, Skin (Melanoma)
  EC50: 1370 nM
  GI50: 1360 nM
  IC50: 1370 nM
[8]
  EC50: 960 nM
  GI50: 960 nM
  IC50: 960 nM
HPAF-II, Pancreas
  EC50: 1380 nM
  GI50: 1370 nM
  IC50: 1380 nM
HT1197, HT-1197, Bladder
  EC50: 2310 nM
  GI50: 2280 nM
  IC50: 2340 nM
HT, Lymphoma
  EC50: 1520 nM
  GI50: 1510 nM
  IC50: 1530 nM
HT-3, Female GU - Cervix
  EC50: 3880 nM
  GI50: 3840 nM
  IC50: 3890 nM
HT-29, HT-29, Colon
  EC50: 4010 nM
  GI50: 4000 nM
  IC50: 4010 nM
[9]
  EC50: 960 nM
  GI50: 960 nM
  IC50: 960 nM
HT-1376, HT1376, Bladder
  EC50: 1450 nM
  GI50: 1430 nM
  IC50: 1460 nM
[10]
  EC50: 1520 nM
  GI50: 1510 nM
  IC50: 1520 nM
HeLa, Female GU - Cervix
  EC50: 2990 nM
  GI50: 2980 nM
  IC50: 2990 nM
HepG2, HepG2, Liver
  EC50: 820 nM
  GI50: 810 nM
  IC50: 820 nM
Hs 229.T, Lung - NSCLC
  EC50: 2880 nM
  GI50: 2890 nM
  IC50: 2940 nM
Hs 294T, Skin (Melanoma)
  EC50: 2640 nM
  GI50: 2590 nM
  IC50: 2640 nM
Hs 445, Hs 445, Lymphoma
  EC50: 1300 nM
  GI50: 1310 nM
  IC50: 1320 nM
Hs 611.T, Lymphoma
  EC50: 2920 nM
  GI50: 2910 nM
  IC50: 2940 nM
Hs 683, Hs 683, CNS - Glioma
  EC50: 4900 nM
  GI50: 4760 nM
  IC50: 4910 nM
Hs 688(A).T, Skin (Melanoma)
  EC50: 1330 nM
  GI50: 1270 nM
  IC50: 1440 nM
Hs746T, HS 746T, Stomach
  EC50: 5580 nM
  GI50: 4640 nM
  IC50: 5740 nM
Hs766T, Hs 766T, Pancreas
  EC50: 1610 nM
  GI50: 1540 nM
  IC50: 1610 nM
[11]
  EC50: 4220 nM
  GI50: 1800 nM
  IC50: 4220 nM
[12]
  EC50: 2200 nM
  GI50: 2050 nM
  IC50: 2380 nM
Hs 934.T, Skin (Melanoma)
  EC50: 2530 nM
  GI50: 2340 nM
  IC50: 3270 nM
Hs 936.T(C1), Skin (Melanoma)
  EC50: 2000 nM
  GI50: 1970 nM
  IC50: 2000 nM
Hs-578T, Hs 578T, Breast
  EC50: 4740 nM
  GI50: 4680 nM
  IC50: 4760 nM
HuCCT-1, HuCCT1, Liver
  EC50: 2480 nM
  GI50: 2480 nM
  IC50: 2480 nM
HuP-T4, HuP-T4, Pancreas
  EC50: 4520 nM
  GI50: 4530 nM
  IC50: 4540 nM
J82, Bladder
  EC50: 1060 nM
  GI50: 1050 nM
  IC50: 1060 nM
JAR, Placenta
  EC50: 12200 nM
  GI50: 12200 nM
  IC50: 12200 nM
JEG-3, JEG-3, Placenta
  EC50: 4330 nM
  GI50: 4320 nM
  IC50: 4330 nM
JIYOYE, Lymphoma
  EC50: 5880 nM
  GI50: 5870 nM
  IC50: 5880 nM
JeKo-1, JeKo-1, Lymphoma
  EC50: 5230 nM
  GI50: 5210 nM
  IC50: 5230 nM
Jurkat, Leukemia
  EC50: 2250 nM
  GI50: 2240 nM
  IC50: 2250 nM
K562, K562, Leukemia
  EC50: 4600 nM
  GI50: 4580 nM
  IC50: 4600 nM
KATO III, Stomach
  EC50: 3280 nM
  GI50: 3270 nM
  IC50: 3280 nM
KHOS-240S, Soft Tissue - Osteosarcoma
  EC50: 950 nM
